Data taken from patent publication US7829575B2, “Methods for treating androgen receptor related disorders” (University of Cincinnati, priority 2006, dated 2010).
Like-named read-outs stand apart in the source and are kept apart here.

How the values were obtained:
[1] = test system: LNCaP cells (mutant AR, H877A); test: LNCaP cell growth, MTT staining; assay type: cell-based; details: for inhibition at 10 µM: Homo sapiens, LNCaP, 96 h
Text: Viable cells are stained with MTT (3-(4,5-dimethylthiazol-2-yl)-2,5-diphenyltetrazolium bromide). *, **, and *** designate p<0.05, <0.01, and 0.001, respectively, compared with controls.

LNCaP-ARR2-GFP cells = test: AR-regulated GFP expression in LNCaP-ARR2-GFP cells; assay type: cell-based; details: SMEM, absence of DHT; DL3 at 25 nM or 20 μM
LNCaP-Nilut-R cells = test: PSA secretion, ELISA of culture supernatant; assay type: cell-based; details: 1 nM DHT, 10 μM, 48 hr (FIG. 5D)
Protocol: (§1) For the following discussion, see FIG. 5, where androgen-starved LNCaP, LNCaP-Flut-R, or LNCaP-Nilut-R cells are plated into 96-well plates at 2×10^4 cells/wells in SMEM and treated for 48 hr. PSA in the culture supernatant is determined by using an enzyme-linked immunosorbent assay (ELISA) kit. PSA levels are normalized by cell density. […] The DHT-induced production of PSA is reduced by approximately 50% in cells treated with 5 μM of DL3 (FIG. 5B). […] PSA production is elevated in LNCaP-Flut-R and LNCaP-Nilut-R cells compared with that in their parental cells (FIG. 5D).

LNCaP-Flut-R cells = test: PSA secretion, ELISA of culture supernatant; assay type: cell-based; details: 1 nM DHT, 10 μM, 48 hr (FIG. 5D)
Protocol: as §1

LNCaP cells [2] = test: AR protein stability and hsp70/hsp90 expression, western blotting; assay type: cell-based
Protocol: Cell lysates are prepared and analyzed by western blotting. […] To further determine how DL3 downregulates AR, LNCaP cells are incubated for 24 hr with DL3 in the absence or presence of proteasome inhibitor MG132.
Hsp70 and hsp90 are key molecular chaperones in cells. Along with several co-chaperones, hsp70 and hsp90 play critical roles in folding and assembling AR to a high-affinity ligand binding conformation and in regulating AR activation that occurs following hormone binding. Therefore, the possibility of whether the downregulation of AR protein by DL3 is mediated by its effects on hsp70 or hsp90 expression is investigated.
Thus, the effects of DL3 on hsp70 expression are further investigated in several other prostate cancer cell lines, including LAPC-4 (wildtype AR), 22Rv1 (mutant AR), and AR-negative cell lines PC-3, DU-145, PWE1-NB14 (ATCC), and PWE1-NB26 (ATCC). […] In FIG. 10, LAPC-4 (in SMEM) and all other (in CMEM) cells are treated for 24 hr and analyzed by western blotting. LNCaP cells are transfected for 24 hr with hsp70 or its control vector, then treated for 24 hr.

LNCaP cells [3] = test: Cellular PSA and AR protein, western blotting; assay type: cell-based; details: 24 hr
Protocol: In FIG. 6, cellular PSA and AR are analyzed by western blotting androgen-starved LNCaP cells.

LNCaP-AI cells = test: Growth of androgen-independent LNCaP-AI cells, MTT; assay type: cell-based; details: SMEM, four days
Protocol: See, for example, FIG. 3 where LNCaP-A1 cells in SMEM and 22Rv1 cells in CMEM are cultured for four days with DL3, followed by MTT staining and 22Rv1 cells are obtained from ATCC.

[4] = test system: LAPC-4 cells (wildtype AR); test: Cellular PSA and AR protein, western blotting; assay type: cell-based
wildtype AR = target: T1, wildtype AR (Homo sapiens, UniProt P10275); test: PSA promoter luciferase reporter in PC-3 cells co-transfected with AR; details: PC-3 cells transfected with wildtype AR, 20 μM, 1 nM DHT, 24 hr
T1 sequence (P10275 1-920): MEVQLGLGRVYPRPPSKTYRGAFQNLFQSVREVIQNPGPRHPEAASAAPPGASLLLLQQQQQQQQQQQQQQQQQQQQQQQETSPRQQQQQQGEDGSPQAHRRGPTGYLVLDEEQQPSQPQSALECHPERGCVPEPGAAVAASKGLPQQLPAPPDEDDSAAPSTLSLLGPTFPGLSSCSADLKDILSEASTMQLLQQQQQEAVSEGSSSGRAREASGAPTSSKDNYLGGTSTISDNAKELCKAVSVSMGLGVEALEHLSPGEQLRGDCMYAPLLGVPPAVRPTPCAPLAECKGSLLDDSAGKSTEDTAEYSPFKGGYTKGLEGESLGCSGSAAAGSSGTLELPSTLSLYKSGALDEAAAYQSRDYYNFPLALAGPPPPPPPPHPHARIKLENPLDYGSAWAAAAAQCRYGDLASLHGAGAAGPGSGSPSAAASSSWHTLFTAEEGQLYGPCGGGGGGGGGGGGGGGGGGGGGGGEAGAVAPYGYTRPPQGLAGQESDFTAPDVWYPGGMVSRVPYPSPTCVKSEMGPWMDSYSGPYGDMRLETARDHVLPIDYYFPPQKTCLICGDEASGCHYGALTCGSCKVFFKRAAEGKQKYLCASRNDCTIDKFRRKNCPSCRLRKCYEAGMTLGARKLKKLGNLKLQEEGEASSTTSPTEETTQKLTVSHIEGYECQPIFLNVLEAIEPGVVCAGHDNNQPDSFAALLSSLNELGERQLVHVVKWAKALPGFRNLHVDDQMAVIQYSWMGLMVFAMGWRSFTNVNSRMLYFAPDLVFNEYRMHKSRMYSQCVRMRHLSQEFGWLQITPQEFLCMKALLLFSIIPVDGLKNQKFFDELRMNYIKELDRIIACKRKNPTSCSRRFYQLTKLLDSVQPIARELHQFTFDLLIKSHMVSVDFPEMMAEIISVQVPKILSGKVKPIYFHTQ

LNCaP cells [5] = test: PSA secretion, ELISA of culture supernatant; assay type: cell-based
Protocol: PSA in the culture supernatant is determined by using an enzyme-linked immunosorbent assay (ELISA) kit. PSA levels are normalized by cell density.

[6] = 20 μM DL3, time course to 48 hr (FIG. 9A)

CC(C)(C)c1ccc(OCCSc2nc(=O)cc(N)[nH]2)cc1 [DL3, 6-amino-2-(2-4-tert-butyl-phenoxy)-ethylsulfanyl-1H-pyrimidin-4-one]
concentration at which inhibition of DHT-stimulated growth reaches a plateau ([1]; 1 nM DHT, 4 days): greater than 10 μM | effect on DHT-stimulated growth of LNCaP cells ([1]; 1 nM DHT, SMEM, 4 days, dose response): inhibits DHT-stimulated growth | growth of parental LNCaP cells ([1]; 10 μM, 4 days, MTT (FIG. 2F)): significantly inhibits growth | additive effect on growth of DL3 with Flut, Nilut or Bical ([1]; CMEM, 4 days, 5 μM DL3 and 10 μM of Flut, Nilut, or Bical): No significant additive effect | inhibition at 10 µM ([1]; read-out: inhibition of growth of LNCaP cells in the absence of DHT): 27% | inhibition at 10 µM ([1]; read-out: inhibition of growth of LNCaP cells in the presence of DHT): 82% | growth of LNCaP cells in the absence of DHT ([1]; no DHT, dose response): inhibits growth | GFP expression (AR agonist activity) (LNCaP-ARR2-GFP cells): does not induce GFP expression | PSA production in LNCaP-Nilut-R cells (LNCaP-Nilut-R cells): inhibits PSA production | PSA production in LNCaP-Flut-R cells (LNCaP-Flut-R cells): inhibits PSA production | time after exposure at which AR downregulation can be observed (LNCaP cells [2]; 20 μM): 8 h | time after treatment at which reduction of hsp70 starts (LNCaP cells [2]; 20 μM DL3): 4 h | expression of hsp70 (LNCaP cells [2]; [6]): reduced | expression of hsp90 (LNCaP cells [2]; [6]): not | partial reversal by DHT of the CHX-diminished AR expression (LNCaP cells [2]; 24 hr with DHT, DL3 and CHX (FIG. 9B, lane 7 vs. lane 6)): also blocked | AR downregulation by DL3 under overexpression of hsp70 (LNCaP cells [2]; LNCaP cells transfected 24 hr with hsp70, then treated 24 hr): not able to protect AR downregulation | elevation of AR and PSA expression by DHT (LNCaP cells [2]; SMEM, 24 hr (FIG. 9B, lane 4 vs. lane 3)): blocked | AR protein levels (LNCaP cells [2]; dose-dependent): downregulates AR protein levels | expression of AR protein (LNCaP cells [3]; 5 and 10 μM): not significantly altered | expression of AR protein (LNCaP cells [3]; 20 and 40 μM): reduced | DHT-induced PSA protein expression (LNCaP cells [3]; SMEM, Flut, Nilut, Bical at 20 μM): dose-dependently reduced | growth of androgen-independent LNCaP-AI cells (LNCaP-AI cells): suppressed | AR protein expression ([4]; 20 μM, 24 hr): similarly reduced | DHT-induced PSA protein expression ([4]; SMEM, 1 nM DHT, 20 μM DL3, 24 hr): inhibitory effects | DHT-induced activation of PSA promoter activity (wildtype AR): significantly inhibits | PSA production in parental LNCaP cells (LNCaP cells [5]; 1 nM DHT, 10 μM, 48 hr (FIG. 5D)): inhibits PSA production | reduction of DHT-induced production of PSA (LNCaP cells [5]; 5 μM, 48 hr): approximately 50% | PSA production under androgen-free conditions (LNCaP cells [5]; 20 μM, no DHT, 48 hr): does not induce PSA production | inhibition at 20 µM (LNCaP cells [5]; Homo sapiens, LNCaP, 48 h, read-out: inhibition of DHT-induced PSA production): ~90% | inhibitory effects on DHT-induced PSA production, dose response (LNCaP cells [5]; various concentrations of DL3 and DHT (FIG. 5B)): dose-dependent | PSA production stimulated by Nilut (LNCaP cells [5]; various concentrations of DL3 and Nilut (FIG. 5C)): blocked
